Assay results taken from US7199148B2, “Broadspectrum substituted oxindole sulfonamide HIV protease inhibitors” (priority 2002, dated 2007).
Where two headings read alike, the source gives them in different places.

What was measured:
Format in all cases: cell-based
[1] = system: HIV strain C; assay: Antiviral spectrum, clinically isolated mutant strain C; conditions: FR=EC50(mutant strain)/EC50(HIV-1 strain LAI)
Procedure: (§1) HIV- or mock-infected MT4 cells were incubated for five days in the presence of various concentrations of the inhibitor. At the end of the incubation period, all HIV-infected cells have been killed by the replicating virus in the control cultures in the absence of any inhibitor. Cell viability is measured by measuring the concentration of MTT, a yellow, water soluble tetrazolium dye that is converted to a purple, water insoluble formazan in the mitochondria of living cells only. Upon solubilization of the resulting formazan crystals with isopropanol, the absorbance of the solution is monitored at 540 nm. The values correlate directly to the number of living cells remaining in the culture at the completion of the five day incubation. The inhibitory activity of the compound was monitored on the virus-infected cells and was expressed as EC50 and EC90. These values represent the amount of the compound required to protect 50% and 90%, respectively, of the cells from the cytopathogenic effect of the virus. The toxicity of the compound was measured on the mock-infected cells and was expressed as CC50, which represents the concentration of compound required to inhibit the growth of the cells by 50%. The selectivity index (SI) (ratio CC50/EC50) is an indication of the selectivity of the anti-HIV activity of the inhibitor. Wherever results are reported as e.g. pEC50 or pCC50 values, the result is expressed as the negative logarithm of the result expressed as EC50 or CC50 respectively.
(§2) Because of the increasing emergence of drug resistant HIV strains, the present compounds were tested for their potency against clinically isolated HIV strains harboring several mutations (Table 2 and 3). These mutations are associated with resistance to protease inhibitors and result in viruses that show various degrees of phenotypic cross-resistance to the currently commercially available drugs such as for instance saquinavir, ritonavir, nelfinavir, indinavir and amprenavir.
(§3) As a measure of the broad spectrum activity of the present compounds, the fold resistance (FR), defined as FR=EC50(mutant strain)/EC50(HIV-1 strain LAI), was determined.

[2] = system: HIV strain A; assay: Antiviral spectrum, clinically isolated mutant strain A; conditions: FR=EC50(mutant strain)/EC50(HIV-1 strain LAI)
Procedure: as §1, §2, §3

[3] = system: HIV strain E; assay: Antiviral spectrum, clinically isolated mutant strain E; conditions: FR=EC50(mutant strain)/EC50(HIV-1 strain LAI)
Procedure: as §1, §2, §3

[4] = system: HIV strain B; assay: Antiviral spectrum, clinically isolated mutant strain B; conditions: FR=EC50(mutant strain)/EC50(HIV-1 strain LAI)
Procedure: as §1, §2, §3

[5] = Toxicity on mock-infected MT4 cells (MTT); conditions: human
Procedure: as §1, §3

[6] = system: HIV strain D; assay: Antiviral spectrum, clinically isolated mutant strain D; conditions: FR=EC50(mutant strain)/EC50(HIV-1 strain LAI)
Procedure: as §1, §2, §3

[7] = system: HIV strain F; assay: Antiviral spectrum, clinically isolated mutant strain F; conditions: FR=EC50(mutant strain)/EC50(HIV-1 strain LAI)
Procedure: as §1, §2, §3

[8] = system: HIV-1 strain LAI; assay: Cellular anti-HIV assay, MT4 cells, MTT read-out, wild type strain
Procedure: as §1, with “The compounds of the present invention were examined for anti-viral activity in a cellular assay. […] The cellular assay was performed according to the following procedure. HIV- or” for “HIV- or”

[9] = Human immunodeficiency virus 1, MT4, Table 3, wild type HIV-LAI strain, read-out: WT (pEC50) (converted)
[10] = Human immunodeficiency virus 1, 120 h, Table 1, MT4 cells, five days incubation, HIV-1 strain LAI, read-out: pEC50 (converted)

| SMILES | C (FR towards mutant C) [1] | A (FR towards mutant A) [2] | E (FR towards mutant E) [3] | B (FR towards mutant B) [4] | CC50 at 5 days [5] | D (FR towards mutant D) [6] | F (FR towards mutant F) [7] | EC50 [8, 9] | EC50 [8, 10] | EC50 ([8]; Human immunodeficiency virus 1, MT4, read-out: WT (pEC50) (converted)) |
| --- | --- | --- | --- | --- | --- | --- | --- | --- | --- | --- |
| CC(C)CN(C[C@@H](O)[C@H](Cc1ccccc1)NC(=O)OC1COC2OCCC12)S(=O)(=O)c1ccc2c(c1)CC(=O)N2 (stereo in doubt) [Compound 21, Hexahydrofuro[2,3-b]furan-3-yl N-(1-benzyl-2-hydroxy-3-{isobutyl[(2-oxo-2,3-dihydro-1H-indol-5-yl)sulfonyl]amino}propyl}carbamate] | 0.7 | 1.0 | 0.56 | 1.1 | 100000 nM | 0.33 | 1.2 | 158 nM |  |  |
| CC(C)CN(CC(O)C(Cc1ccccc1)NC(=O)OC1COC2OCCC12)S(=O)(=O)c1ccc2c(c1)C(=Cc1ccc[nH]1)C(=O)N2 (stereo not shown) [Compound 1, (1-Benzyl-2-hydroxy-3-{isobutyl-[2-oxo-3-(1H-pyrrol-2-ylmethylene)-2,3-dihydro-1H-indole-5-sulfonyl]-amino}-propyl)-carbamic acid hexahydrofuro[2,3-b]furan-3-yl ester] | 2.1 | 4.3 | 6.2 | 8.7 | 12600 nM | 2.0 | 10 | 3.16 nM | 3.16 nM |  |
| Cc1ccc(C=C2C(=O)Nc3ccc(S(=O)(=O)N(CC(C)C)CC(O)C(Cc4ccccc4)NC(=O)OC4COC5OCCC45)cc32)o1 (stereo not shown) [Compound 2, (1-Benzyl-2-hydroxy-3-{isobutyl-[3-(5-methyl-furan-2-ylmethylene)-2-oxo-2,3-dihydro-1H-indole-5-sulfonyl]-amino}-propyl)-carbamic acid hexahydro-furo[2,3-b]furan-3-yl ester] | 1 | 1.7 | 3.1 | 3.6 | 20000 nM | 3.8 | 3.9 |  | 8.51 nM | 9.77 nM |
| Cc1ccc(C=C2C(=O)Nc3ccc(S(=O)(=O)N(CC(C)C)CC(O)C(Cc4ccccc4)NC(=O)OC4COC5OCCC45)cc32)s1 (stereo not shown) [Compound 3, (1-Benzyl-2-hydroxy-3-{isobutyl-[3-(5-methyl-thiophen-2-ylmethylene)-2-oxo-2,3-dihydro-1H-indole-5-sulfonyl]-amino}-propyl)-carbamic acid hexahydro-furo[2,3-b]furan-3-yl ester] | 2.6 | 3.0 | 7.1 | 3.8 | 100000 nM | 3.0 | 6.8 | 12.6 nM | 11.5 nM |  |
| CC(C)CN(CC(O)C(Cc1ccccc1)NC(=O)OC1COC2OCCC12)S(=O)(=O)c1ccc2c(c1)C(=Cc1cccn1C)C(=O)N2 (stereo not shown) [Compound 4, (1-Benzyl-2-hydroxy-3-{isobutyl-[3-(1-methyl-1H-pyrrol-2-ylmethylene)-2-oxo-2,3-dihydro-1H-indole-5-sulfonyl]-amino}-propyl)-carbamic acid hexahydro-furo[2,3-b]furan-3-yl ester] | 1.7 | 2.3 | 2.4 | 1.9 | 100000 nM | 1.9 | 2.0 | 15.8 nM | 15.5 nM |  |
| CCC(C=C1C(=O)Nc2ccc(S(=O)(=O)N(CC(C)C)CC(O)C(Cc3ccccc3)NC(=O)OC3COC4OCCC34)cc21)CC (stereo not shown) [Compound 5, (1-Benzyl-3-{[3-(2-ethyl-butylidene)-2-oxo-2,3-dihydro-1H-indole-5-sulfonyl]-isobutyl-amino}-2-hydroxy-propyl)-carbamic acid hexahydro-furo[2,3-b]furan-3-yl ester] | 2.0 | 1.9 | 4.2 | 8.3 | 63100 nM | 2.0 | 6.5 | 15.8 nM | 16.6 nM |  |
| CC(C)C=C1C(=O)Nc2ccc(S(=O)(=O)N(CC(C)C)CC(O)C(Cc3ccccc3)NC(=O)OC3COC4OCCC34)cc21 (stereo not shown) [Compound 6, {1-Benzyl-2-hydroxy-3-[isobutyl-(3-isobutylidene-2-oxo-2,3-dihydro-1H-indole-5-sulfonyl)-amino]-propyl}-carbamic acid hexahydro-furo[2,3-b]furan-3-yl ester] | 1.6 | 2.5 | 2.0 | 7.1 | 50100 nM | 1.4 | 7.9 | 20 nM | 19.5 nM |  |
| CC(C)CN(CC(O)C(Cc1ccccc1)NC(=O)OC1COC2OCCC12)S(=O)(=O)c1ccc2c(c1)/C(=C\c1ccco1)C(=O)N2 (stereo not shown) [Compound 7, Hexahydrofuro[2,3-b]furan-3-yl N-{1-benzyl-3-[({3-[(E)-2-furylmethylidene]-2-oxo-2,3-dihydro-1H-indol-5-yl}sulfonyl) (isobutyl)amino]-2-hydroxypropyl}carbamate] | 1.7 | 1.8 | 5.9 | 2.6 | 79400 nM | 2.4 | 1.9 | 20 nM | 19.5 nM |  |
| COc1ccc(C=C2C(=O)Nc3ccc(S(=O)(=O)N(CC(C)C)CC(O)C(Cc4ccccc4)NC(=O)OC4COC5OCCC45)cc32)cc1 (stereo not shown) [Compound 8, (1-Benzyl-2-hydroxy-3-{isobutyl-[3-(4-methoxy-benzylidene)-2-oxo-2,3-dihydro-1H-indole-5-sulfonyl]-amino}-propyl)-carbamic acid hexahydro-furo[2,3-b]furan-3-yl ester] | 1.5 | 1.7 | 2.0 | 5.0 | 63100 nM | 1.5 | 1.7 | 20 nM | 20 nM |  |
| Cc1ccc(C=C2C(=O)Nc3ccc(S(=O)(=O)N(CC(C)C)CC(OP(=O)(O)O)C(Cc4ccccc4)NC(=O)OC4COC5OCCC45)cc32)o1 (stereo not shown) [Compound 19, (1-Benzyl-3-{isobutyl-[3-(5-methyl-furan-2-ylmethylene)-2-oxo-2,3-dihydro-1H-indole-5-sulfonyl]-amino}-2-phosphonooxy-propyl)-carbamic acid hexahydro-furo[2,3-b]furan-3-yl ester] |  |  |  |  |  |  |  |  | 302 nM |  |
| CC(C)CN(CC(O)C(Cc1ccccc1)NC(=O)OC1COC2OCCC12)S(=O)(=O)c1ccc2c(c1)C(=Cc1ccc(C(=O)O)cc1)C(=O)N2 (stereo not shown) [Compound 20, 4-(5-{[3-(Hexahydro-furo[2,3-b]furan-3-yloxycarbonylamino)-2-hydroxy-4-phenyl-butyl]-isobutyl-sulfamoyl}-2-oxo-1,2-dihydro-indol-3-ylidenemethyl)-benzoic acid] |  |  |  |  |  |  |  |  | 891 nM |  |
